According to PMC6609550, “Blockade of the forward Na^+/Ca^2+ exchanger suppresses the growth of glioblastoma cells through Ca^2+‐mediated cell death” (British Journal of Pharmacology, 2019):

Assays:
[1] = Cell viability assay (Cell Counting Kit-8), ranges given for U87 and U251 together; type: cell-based, Human; conditions: human, U87 and U251 cells, read-out: Cell viability, % of control level
Method: (§1) Cell viability was determined by using a Cell Counting Kit‐8 (Dojindo, Japan). Briefly, cells were harvested from flasks and plated in 96‐well cell culture plates at 5 × 10^3 per well and cultured overnight. Cells were treated with test reagents for 72 hr. Control cells were treated with cell culture medium and measured at the same time point as treatment groups. CCK‐8 solution (10 μl) was added to each well of the 96‐well plates, and the cultures were incubated for 30 min at 37°C. Absorbance at 450 nm was measured using an automatic microplate reader (Molecular Devices, San Jose, CA, USA).

[2] = test system: human astrocytes; assay: Cell viability of human astrocytes; type: cell-based; conditions: 25 μM, 48 hr
Method: as §1
Figure 8 Impact of bepridil on human astrocytes (HA) and the Na^+/Ca^2+ exchanger (NCX) isoforms in each cell line. (a) Viability of U87, U251, and SF188 cells and HA after exposure to bepridil (25 μM, 48 hr); n = 5 independent tests in each group. (b) The bands of NCX1, NCX2, and NCX3 isoforms detected by Western blot analysis in the sample of HA and glioblastoma cell lines U87, U118, A172, U251, and SF188. (c) Representative recording of the NCX currents in HA and glioblastoma cell lines. (d) Viability of U87, U251, and SF188 cells and HA after exposure to KB‐R7943 (25 μM, 48 hr). n = 5 independent tests in each group

[3] = test system: p38‐MAPK; assay: Western blot of phosphorylated and total p38-MAPK in U87 cells; type: cell-based, Human; conditions: 25 μM, 10, 30, 60 and 90 min
Method: (§2) After treatment with bepridil for 0, 30, 60, and 90 min, cells were collected and lysed in RIPA buffer (Beyotime, Nanjing, China) supplemented with protease inhibitor (Beyotime). The total protein concentration of each sample was determined using the BCA Protein Assay Kit (Sangon Biotech, Shanghai, China). Equal protein extracts (45‐μg protein per lane) were separated by SDS‐PAGE and electrophoretically transferred to PVDF membranes (Millipore, Bedford, MA, USA). Then, the membranes were incubated with anti‐phosphorylated and total http://www.guidetopharmacology.org/GRAC/FamilyDisplayForward?familyId=514, http://www.guidetopharmacology.org/GRAC/FamilyDisplayForward?familyId=518, and http://www.guidetopharmacology.org/GRAC/FamilyDisplayForward?familyId=519 antibodies (1:1,000; Cell Signaling Technology) at 4°C overnight, followed by incubation with IRDye 680LT fluorescent secondary antibody (LI‐COR Biosciences, Lincoln, NE, USA). Proteins were visualized using the Odyssey Fc Imaging System (LI‐COR Biosciences, Lincoln, NE, USA). Mouse α‐tubulin antibody was used as protein loading controls. The immuno‐related procedures used comply with the recommendations made by the British Journal of Pharmacology (Alexander et al., 2018).

[4] = test system: [Na^+]i in U87 cells; assay: Na+ imaging (ANG-2 AM) of U87 cells; type: cell-based, Human; conditions: bepridil 50 μM, KB‐R7943 50 μM, CB‐DMB 4 μM
Method: Cells were cultured in 96‐well plates at 8 × 10^3 per well and loaded with the cell membrane‐permeable Ca^2+ dye Fluo‐4 AM (5 μM) in 100‐μl HEPES‐buffered solution for 50 min. The solution contained (mM): 135 NaCl, 3 KCl, 2 CaCl2, 1 MgCl2, 10 glucose, and 10 HEPES, supplemented with 1% FBS at pH 7.4. To prepare the Ca^2+‐free solution, 2‐mM CaCl2 was replaced with 1‐mM EGTA in the HEPES‐buffered solution. The 96‐well plate containing the Fluo‐4 AM‐loaded cells was mounted in a Leica TCS SP8 confocal system (Leica Microsystems, Wetzlar, Germany). The confocal microscope armed with 488‐nm laser light was employed to excite the dynamic fluorescent signals in time and synchronously, while test regents were added to cells. To do Na^+ imaging, Fluo‐4 AM was replaced with the cell membrane‐permeable Na^+ dye Asante NaTrium Green‐2 AM (ANG‐2 AM) at 5 μM, which was excited by 514‐nm laser light. Visual inspection and fluorescent imaging were carried out at room temperature. The imaging data were analysed with the software https://leica-las-af-lite.software.informer.com/ 2.5 (Leica). The imaging traces shown are representative of at least three separate experiments; 12–18 cells were imaged in each experiment.

[5] = test system: ERK; assay: Western blot of phosphorylated and total ERK in U87 cells; type: cell-based, Human; conditions: 25 μM, 10, 30, 60 and 90 min
Method: as §2, with “The” for “After treatment with bepridil for 0, 30, 60, and 90 min, cells were collected and lysed in RIPA buffer (Beyotime, Nanjing, China) supplemented with protease inhibitor (Beyotime). The”

[6] = test system: JNK; assay: Western blot of phosphorylated and total JNK in U87 cells; type: cell-based, Human; conditions: 25 μM, 10, 30, 60 and 90 min
Method: as §2

[7] = test system: U87 and U251 cells; assay: Cell viability assay (Cell Counting Kit-8), ranges given for U87 and U251 together; type: cell-based, Human; conditions: 72 hr
Method: as §1

| Compound | viability at 72 h, 20 µM ([1]; 20 μM) [%] | viability at 72 h, 50 µM ([1]; 50 μM) [%] | viability at 72 h, 100 µM ([1]; 100 μM) [%] | Cytotoxicity in human astrocytes (viability) [2] | Effect on p38-MAPK activity [3] | Effect on intracellular Na+ [Na+]i level [4] | Effect on ERK activity [5] | Effect on JNK activity [6] | Cell viability, % of control level ([7]; 20 μM) | Cell viability, % of control level ([7]; 50 μM) | Cell viability, % of control level ([7]; 100 μM) |
| --- | --- | --- | --- | --- | --- | --- | --- | --- | --- | --- | --- |
| CC(C)COCC(CN(Cc1ccccc1)c1ccccc1)N1CCCC1 (stereo not shown) [Bepridil, N‐benzyl‐N‐(3‐isobutoxy‐2‐pyrrolidin‐1‐yl‐propyl)aniline] | 30 to 40 | 6 to 7 | 3 to 4 | did not generate apparent cytotoxicity | activated | did not change | not affected | activated |  |  |  |
| CS(=O)(=O)O.N=C(N)SCCc1ccc(OCc2ccc([N+](=O)[O-])cc2)cc1 [KB‐R7943, 2‐[4‐[(4‐nitrophenyl)methoxy]phenyl]ethyl ester carbamimidothioic acid methanesulfonate] |  |  |  | deleterious to astrocytes |  | slightly decreased |  |  | 50–60% | 7–18% | 2–3% |
